In test [1] the target is T1, TBK1 (Homo sapiens, UniProt Q9UHD2).
T1 sequence (Q9UHD2 1-729): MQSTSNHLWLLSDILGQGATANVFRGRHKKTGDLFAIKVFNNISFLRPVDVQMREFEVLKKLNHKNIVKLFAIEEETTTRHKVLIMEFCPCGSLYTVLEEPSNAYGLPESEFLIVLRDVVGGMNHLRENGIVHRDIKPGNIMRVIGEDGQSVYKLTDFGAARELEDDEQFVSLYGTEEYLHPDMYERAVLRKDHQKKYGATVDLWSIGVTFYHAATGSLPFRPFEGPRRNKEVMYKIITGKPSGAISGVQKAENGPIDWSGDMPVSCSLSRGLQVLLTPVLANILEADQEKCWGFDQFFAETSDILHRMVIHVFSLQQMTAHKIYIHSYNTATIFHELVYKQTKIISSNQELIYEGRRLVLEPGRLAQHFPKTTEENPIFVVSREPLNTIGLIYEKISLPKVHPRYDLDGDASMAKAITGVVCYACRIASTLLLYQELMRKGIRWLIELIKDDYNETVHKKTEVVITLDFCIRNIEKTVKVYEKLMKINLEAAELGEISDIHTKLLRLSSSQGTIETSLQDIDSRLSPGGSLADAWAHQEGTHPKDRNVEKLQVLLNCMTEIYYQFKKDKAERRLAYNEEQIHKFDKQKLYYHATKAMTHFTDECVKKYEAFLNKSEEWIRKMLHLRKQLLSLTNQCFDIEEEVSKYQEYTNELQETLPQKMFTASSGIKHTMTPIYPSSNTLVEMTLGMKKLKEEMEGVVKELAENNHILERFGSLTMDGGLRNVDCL
Nature of the test: TBK biochemical assay. In a few lines: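 Substrate and product were separated and quantified by microfluidic mobility-shift read (LabChip). 10 uM staurosporine served as the full-inhibition control, and the reference compound was tested from 1 uM final.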

For test [2], the target named is T2, IKKε (Homo sapiens, UniProt Q14164).
T2 sequence (Q14164 1-716): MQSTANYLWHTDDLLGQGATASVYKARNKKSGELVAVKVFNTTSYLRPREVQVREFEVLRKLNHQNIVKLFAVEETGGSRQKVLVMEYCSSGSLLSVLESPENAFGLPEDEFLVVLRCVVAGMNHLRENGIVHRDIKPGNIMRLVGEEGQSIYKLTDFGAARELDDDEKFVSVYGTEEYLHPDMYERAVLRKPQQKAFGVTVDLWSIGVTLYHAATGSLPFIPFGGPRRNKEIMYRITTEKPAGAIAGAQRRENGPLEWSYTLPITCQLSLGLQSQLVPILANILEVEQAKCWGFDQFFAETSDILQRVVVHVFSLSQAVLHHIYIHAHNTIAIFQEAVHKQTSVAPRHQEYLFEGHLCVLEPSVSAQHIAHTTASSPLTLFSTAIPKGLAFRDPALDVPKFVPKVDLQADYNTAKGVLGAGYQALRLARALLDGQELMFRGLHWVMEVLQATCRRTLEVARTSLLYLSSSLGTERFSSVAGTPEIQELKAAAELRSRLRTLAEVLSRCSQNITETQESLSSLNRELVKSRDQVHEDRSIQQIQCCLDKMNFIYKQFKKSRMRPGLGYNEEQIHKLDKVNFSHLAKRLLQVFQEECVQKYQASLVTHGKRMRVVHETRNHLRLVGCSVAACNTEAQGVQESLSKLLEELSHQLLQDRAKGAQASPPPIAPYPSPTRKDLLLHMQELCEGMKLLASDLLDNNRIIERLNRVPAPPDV
In words: IKKε biochemical assay. As to conditions: 30 uM top concentration, 90 min at 25° C., LabChip EZ Reader II. In a few lines: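 Compounds in 1% DMSO final were incubated with IKKε enzyme and substrate at 25° C. for 90 min, then stopped. Substrate and product peaks were resolved by LabChip EZ Reader II mobility-shift read-out. Staurosporine at 10 uM final served as the full-inhibition control.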

[3] abbreviates: 10 point 1:4 dose response, 30 uM top concentration, 90 min at 25° C., LabChip EZ Reader II, read-out: TBK1_IC50.
Setting [4] is: 10 point 1:4 dose response, read-out: IKKε_IC50.

In patent US20230019491A1, “PYRIMIDINE TBK/IKKe INHIBITOR COMPOUNDS AND USES THEREOF” (Merck Patent GmbH, priority 2017, published 2023) one finds IC50 data, which are given here for 17 compounds.

Where a name gives a salt, the structure may show the parent alone. Read-outs that look alike come from different tables or passages of the source.

`COc1nc(Nc2nccc(-c3ccc(OC4CCOCC4)c(C#N)c3)n2)ccc1C(=O)N1CC2CC(C1)O2` [Example 7, 5-(2-[[6-methoxy-5-([6-oxa-3-azabicyclo[3.1.1]heptan-3-yl]carbonyl)pyridin-2-yl]amino]pyrimidin-4-yl)-2-(oxan-4-yloxy)benzonitrile]: the IC50 in test [1] is below 100 nM; in test [2] (IKKε_IC50, 10 point 1:4 dose response), below 100 nM.

With `COc1nc(Nc2nccc(-c3ccc(OC4CN(C)C4)c(C#N)c3)n2)ccc1C(=O)N(C)C` [Example 69, 6-[(4-[3-cyano-4-[(1-methylazetidin-3-yl)oxy]phenyl]pyrimidin-2-yl)amino]-2-methoxy-N,N-dimethylpyridine-3-carboxamide], the IC50 in test [1] (setting [3]) and in test [2] (setting [4]) was 100 to 1000 nM each time.

As for `COc1nc(Nc2nccc(-c3ccc(O[C@@H]4CCN(C(=O)[C@@H](C)O)C[C@@H]4F)c(C#N)c3)n2)ccc1C1CCN(C2COC2)CC1` [Example 195, 2-[(3S,4R)-3-Fluoro-1-((R)-2-hydroxy-propionyl)-piperidin-4-yloxy]-5-[2-(2-methoxy-1′-oxetan-3-yl-1′,2′,3′,4′,5′,6′-hexahydro-[3,4′]bipyridinyl-6-ylamino)-pyrimidin-4-yl]-benzonitrile], the IC50 in test [1] (setting [3]) and in test [2] (setting [4]) was 100 to 1000 nM each time.

For `COc1cc(C(=O)N(C)C)cnc1Nc1nccc(-c2ccc(OC3CCOCC3)c(C#N)c2)n1` [Example 58, 6-([4-[3-cyano-4-(oxan-4-yloxy)phenyl]pyrimidin-2-yl]amino)-5-methoxy-N,N-dimethylpyridine-3-carboxamide], the IC50 in test [1] (setting [3]) is 1000 to 5000 nM; in test [2] (setting [4]) it was above 5000 nM.

In the case of `COc1nc(Nc2nccc(-c3ccc(OC4CCN(C(=O)[C@H](C)O)CC4(F)F)c(C#N)c3)n2)ccc1N1CCN(C)CC1C` (stereo in doubt) [Example 112, 2-[3,3-Difluoro-1-((S)-2-hydroxy-propionyl)-piperidin-4-yloxy]-5-{2-[5-((S)-2,4-dimethyl-piperazin-1-yl)-6-methoxy-pyridin-2-ylamino]-pyrimidin-4-yl}-benzonitrile], the IC50 in test [1] (setting [3]) and in test [2] (setting [4]) was below 100 nM in each case.

As for `COc1nc(Nc2nccc(-c3ccc(OC4CCN(C)CC4)c(C#N)c3)n2)ccc1C(=O)N(C)C` [Example 71, 6-[(4-[3-cyano-4-[(1-methylpiperidin-4-yl)oxy]phenyl]pyrimidin-2-yl)amino]-2-methoxy-N,N-dimethylpyridine-3-carboxamide hydrochloride], the IC50 in test [1] (setting [3]) and in test [2] (setting [4]) was 100 to 1000 nM in each case.

For the compound `COc1nc(Nc2nccc(-c3ccc(OC4CCN(C(=O)[C@H](C)O)CC4(F)F)c(C#N)c3)n2)ccc1N1CCN(C)[C@H](C)C1` (stereo partly drawn) [Example 106, 2-[3,3-Difluoro-1-((S)-2-hydroxy-propionyl)-piperidin-4-yloxy]-5-{2-[5-((R)-3,4-dimethyl-piperazin-1-yl)-6-methoxy-pyridin-2-ylamino]-pyrimidin-4-yl}-benzonitrile], the IC50 in test [1] (setting [3]) and in test [2] (setting [4]) was below 100 nM in each case.

With `COc1nc(Nc2nccc(-c3ccc(OC4CCN(C(=O)[C@H](C)O)CC4(F)F)c(C#N)c3)n2)ccc1C1CCN(C2COC2)CC1` (stereo partly drawn) [Example 152, 2-[3,3-Difluoro-1-((S)-2-hydroxy-propionyl)-piperidin-4-yloxy]-5-[2-(2-methoxy-1′-oxetan-3-yl-1′,2′,3′,4′,5′,6′-hexahydro-[3,4′]bipyridinyl-6-ylamino)-pyrimidin-4-yl]-benzonitrile], the IC50 in test [1] (setting [3]) and in test [2] (setting [4]) was below 100 nM in each case.

For `COc1nc(Nc2nccc(-c3ccc(OC4CCOCC4)c(C#N)n3)n2)ccc1C1CCN(C)CC1` [Example 46, 6-(2-[[6-methoxy-5-(1-methylpiperidin-4-yl)pyridin-2-yl]amino]pyrimidin-4-yl)-3-(oxan-4-yloxy)pyridine-2-carbonitrile], the IC50 in test [1] (setting [3]) and in test [2] (setting [4]) was below 100 nM in each case.

In the case of `N#Cc1cc(-c2ccnc(Nc3ccc(C4CCN(C5COC5)C4)cc3)n2)ccc1OC1CCNCC1(F)F` (stereo not shown) [Example 155, 2-(3,3-Difluoro-piperidin-4-yloxy)-5-{2-[4-(1-oxetan-3-yl-pyrrolidin-3-yl)-phenylamino]-pyrimidin-4-yl}-benzonitrile hydrochloride], the IC50 in test [1] (setting [3]) and in test [2] (setting [4]) was below 100 nM throughout.

Take `C[C@@H](O)C(=O)N1CCC(Oc2ccc(-c3ccnc(Nc4ccc(C5CCN(C)CC5)cc4)n3)cc2C#N)C(F)(F)C1` (stereo partly drawn) [Example 145, 2-([3,3-difluoro-1-[(2R)-2-hydroxypropanoyl]piperidin-4-yl]oxy)-5-(2-[[4-(1-methylpiperidin-4-yl)phenyl]amino]pyrimidin-4-yl)benzonitrile]: the IC50 in test [1] (setting [3]) and in test [2] (setting [4]) was below 100 nM each time.

For `C[C@H](O)C(=O)N1CCC(Oc2ccc(-c3ccnc(Nc4ccc(N5CCN(C6COC6)CC5)cn4)n3)cc2C#N)C(F)(F)C1` (stereo partly drawn) [Example 245, 2-([33-difluoro-1-[(2S)-2-hydroxypropanoyl]piperidin-4-yl]oxy)-5-[2-([5-[4-(oxetan-3-yl)piperazin-1-yl]pyridin-2-yl]amino)pyrimidin-4-yl]benzonitrile], the IC50 in test [1] (setting [3]) and in test [2] (setting [4]) was below 100 nM in each case.

In the case of `C[C@H](O)C(=O)N1CCC(Oc2ccc(-c3ccnc(Nc4cccc(C5CCN(C(CO)CO)CC5)c4)n3)cc2C#N)C(F)(F)C1` (stereo partly drawn) [Example 157, 2-[3,3-Difluoro-1-((S)-2-hydroxy-propionyl)-piperidin-4-yloxy]-5-(2-{3-[1-(2-hydroxy-1-hydroxymethyl-ethyl)-piperidin-4-yl]-phenylamino}-pyrimidin-4-yl)-benzonitrile], the IC50 in test [1] (setting [3]) and in test [2] (setting [4]) was below 100 nM each time.

With `COc1nc(Nc2nccc(-c3ccc(OC4CCOCC4)c(C#N)n3)n2)ccc1C(=O)N(C)C` [Example 26, 6-([4-[6-cyano-5-(oxan-4-yloxy)pyridin-2-yl]pyrimidin-2-yl]amino)-2-methoxy-N,N-dimethylpyridine-3-carboxamide], the IC50 in test [1] (setting [3]) and in test [2] (setting [4]) was below 100 nM throughout.

Consider `COc1nc(Nc2nccc(-c3ccc(OC4CCN(C(=O)[C@H](C)O)CC4(F)F)c(C#N)c3)n2)ccc1N1CCN(C)CC1` (stereo partly drawn) [Example 107, 2-[3,3-Difluoro-1-((S)-2-hydroxy-propionyl)-piperidin-4-yloxy]-5-{2-[6-methoxy-5-(4-methyl-piperazin-1-yl)-pyridin-2-ylamino]-pyrimidin-4-yl}-benzonitrile], for which the IC50 in test [1] (setting [3]) and in test [2] (setting [4]) was below 100 nM each time.

As to `COc1nc(Nc2nccc(-c3ccc(OC4CCN(C)CC4(F)F)c(C#N)c3)n2)ccc1N1CCN(C)CC1` (stereo not shown) [Example 98, 2-[(3,3-difluoro-1-methylpiperidin-4-yl)oxy]-5-(2-[[6-methoxy-5-(4-methylpiperazin-1-yl)pyridin-2-yl]amino]pyrimidin-4-yl)benzonitrile], the IC50 in test [1] (setting [3]) and in test [2] (setting [4]) was below 100 nM throughout.

For the compound `COc1nc(Nc2nccc(-c3ccc(OC4CCN(C(=O)C(C)O)CC4(F)F)c(C#N)c3)n2)ccc1C1CCN(C2COC2)CC1` (stereo not shown) [Example 329, 2-[[33-difluoro-1-(2-hydroxypropanoyl)piperidin-4-yl]oxy]-5-[2-([6-methoxy-5-[1-(oxetan-3-yl)piperidin-4-yl]pyridin-2-yl]amino)pyrimidin-4-yl]benzonitrile], the IC50 in test [1] (setting [3]) and in test [2] (setting [4]) was below 100 nM throughout.
